The record followed here is patent publication US11382328B2, “Rapid drug discovery methods for pathogen inactivation” (priority 2019, dated 2022).

In this experiment the test system is E. coli strain W3110. The experiment is described as follows: Synergy assays: Biolog chemical sensitivity panels with Group IB metal, coefficient of drug interaction (CDI) from relative growth. It counts as cell-based. Conditions: for CDI (coefficient of drug interaction), gold + biocide: Gold (μM); for CDI (coefficient of drug interaction), copper mixed with biocide: Copper (mM) section.

Where [1] appears, read: Copper (mM), 1st of 3 copper concentrations (head line not shown), biocide concentration 4 of 4, E. coli.
The mark [2] stands for this setting: Copper (mM), 2nd of 3 copper concentrations (head line not shown), biocide concentration 4 of 4, E. coli.
Setting [3] is: Copper (mM), 3rd of 3 copper concentrations (head line not shown), biocide concentration 4 of 4, E. coli.
[4] abbreviates: first of 3 gold concentrations, biocide concentration 3 of 4.
[5] abbreviates: first of 3 gold concentrations, biocide concentration 4 of 4.
[6] abbreviates: second of 3 gold concentrations, biocide concentration 3 of 4.
The mark [7] stands for this setting: second of 3 gold concentrations, biocide concentration 4 of 4.
Where [8] appears, read: third of 3 gold concentrations, biocide concentration 3 of 4.
[9] abbreviates: third of 3 gold concentrations, biocide concentration 4 of 4.
The mark [10] stands for this setting: Silver 0.5 μM, biocide concentration 3 of 4.
Where [11] appears, read: Silver 0.5 μM, biocide concentration 4 of 4.
[12] abbreviates: Silver 1.0 μM, biocide concentration 3 of 4.
Where [13] appears, read: Silver 1.0 μM, biocide concentration 4 of 4.
[14] abbreviates: Silver 5.0 μM, biocide concentration 3 of 4.
The mark [15] stands for this setting: Silver 5.0 μM, biocide concentration 4 of 4.
The mark [16] stands for this setting: 2nd of 3 copper concentrations (value not shown), 4th of four biocide concentrations.
Where [17] appears, read: Silver 0.5 μM, 3rd of four biocide concentrations, E. coli.
Setting [18] is: Silver 0.5 μM, 4th of four biocide concentrations, E. coli.
Where [19] appears, read: Silver 1.0 μM, 3rd of four biocide concentrations, E. coli.
The mark [20] stands for this setting: Silver 1.0 μM, 4th of four biocide concentrations, E. coli.
The mark [21] stands for this setting: Silver 5.0 μM, 3rd of four biocide concentrations, E. coli.
[22] abbreviates: Silver 5.0 μM, 4th of four biocide concentrations, E. coli.

For the compound `N.N.N.N.N.N.N.N.N.N.N.N.N.N.[Cl-].[Cl-].[Cl-].[Cl-].[Cl-].[Cl-].[O-2].[O-2].[Ru+3].[Ru+3].[Ru+4]` [ruthenium red], the “CDI (coefficient of drug interaction)” value by setting is: (Copper (mM), 1st of 3 copper concentrations (head line not shown), biocide concentration 1 of 4, E. coli) 0.73; (Copper (mM), 1st of 3 copper concentrations (head line not shown), biocide concentration 2 of 4, E. coli) 0.60; (Copper (mM), 1st of 3 copper concentrations (head line not shown), biocide concentration 3 of 4, E. coli) 0.51; under setting [1], 0.50; (Copper (mM), 2nd of 3 copper concentrations (head line not shown), biocide concentration 1 of 4, E. coli) 0.52; (Copper (mM), 2nd of 3 copper concentrations (head line not shown), biocide concentration 2 of 4, E. coli) 0.47. Also, the “CDI (coefficient of drug interaction)” value by setting is: (Copper (mM), 2nd of 3 copper concentrations (head line not shown), biocide concentration 3 of 4, E. coli) 0.37; under setting [2], 0.30; (Copper (mM), 3rd of 3 copper concentrations (head line not shown), biocide concentration 1 of 4, E. coli) 0.45; (Copper (mM), 3rd of 3 copper concentrations (head line not shown), biocide concentration 2 of 4, E. coli) 0.38; (Copper (mM), 3rd of 3 copper concentrations (head line not shown), biocide concentration 3 of 4, E. coli) 0.33; under setting [3], 0.29. Besides, the “CDI (coefficient of drug interaction), gold + biocide” value (“CDI … gold + biocide” below) was determined as 1.04 (first of 3 gold concentrations, biocide concentration 1 of 4); 0.94 (first of 3 gold concentrations, biocide concentration 2 of 4); 1.05 under setting [4]; 1.06 under setting [5]; 1.03 (second of 3 gold concentrations, biocide concentration 1 of 4); 1.02 (second of 3 gold concentrations, biocide concentration 2 of 4). Also, the “CDI … gold + biocide” value came to 1.14 under setting [6]; 1.07 under setting [7]; 1.08 (third of 3 gold concentrations, biocide concentration 1 of 4); 1.05 (third of 3 gold concentrations, biocide concentration 2 of 4); 1.13 under setting [8]; 1.09 under setting [9]. The CDI runs as follows: (Silver 0.5 μM, biocide concentration 1 of 4) 0.78; (Silver 0.5 μM, biocide concentration 2 of 4) 0.79; under setting [10], 0.75; under setting [11], 0.69; (Silver 1.0 μM, biocide concentration 1 of 4) 0.87; (Silver 1.0 μM, biocide concentration 2 of 4) 0.89. Moreover, the CDI was 0.83 under setting [12]; 0.34 under setting [13]; 0.68 (Silver 5.0 μM, biocide concentration 1 of 4); 0.34 (Silver 5.0 μM, biocide concentration 2 of 4); 0.38 under setting [14]; 0.19 under setting [15].

Take `C[n+]1cc2c3c(ccc2c2ccc4cc5c(cc4c21)OCO5)OCO3` [sanguinarine]: the “CDI (coefficient of drug interaction), copper mixed with biocide” value is, setting by setting: (1st of 3 copper concentrations (value not shown), 4th of four biocide concentrations) “Tox”; (2nd of 3 copper concentrations (value not shown), 3rd of four biocide concentrations) “Tox”; under setting [16], “Tox”; (3rd of 3 copper concentrations (value not shown), 4th of four biocide concentrations) “Tox”. In addition, the “CDI (coefficient of drug interaction)” value is “Tox” (Gold section of Table 5, first of three gold concentrations (μM, value not given), biocide concentration 3 of 4); “Tox” (Gold section of Table 5, first of three gold concentrations (μM, value not given), biocide concentration 4 of 4); “Tox” (Gold section of Table 5, second of three gold concentrations (μM, value not given), biocide concentration 3 of 4); “Tox” (Gold section of Table 5, second of three gold concentrations (μM, value not given), biocide concentration 4 of 4); “Tox” (Gold section of Table 5, third of three gold concentrations (μM, value not given), biocide concentration 3 of 4); “Tox” (Gold section of Table 5, third of three gold concentrations (μM, value not given), biocide concentration 4 of 4). The “CDI (coefficient of drug interaction), silver + biocide” value (from here on “CDI … silver + biocide”) under setting [17] is “Tox”; the “CDI … silver + biocide” value under setting [18] is recorded as “Tox”; the “CDI … silver + biocide” value under setting [19] is “Tox”; the “CDI … silver + biocide” value under setting [20] was “Tox”; the “CDI … silver + biocide” value under setting [21] is “Tox”; the “CDI … silver + biocide” value under setting [22] is reported as “Tox”.

As to `NNC(N)=O` [semicarbazide], the “CDI (coefficient of drug interaction), copper mixed with biocide” value under setting [16] is reported as “Tox”. In addition, the “CDI … silver + biocide” value is reported as “Tox” under setting [17]; “Tox” under setting [18]; “Tox” under setting [19]; “Tox” under setting [20]; “Tox” under setting [21]; “Tox” under setting [22].

As for `CCCCCCCC(=O)[O-].[Na+]` [sodium caprylate], the “CDI (coefficient of drug interaction)” value reads like this: under setting [1], “Tox”; under setting [2], “Tox”; under setting [3], “Tox”. Also, the “CDI … gold + biocide” value was “Tox” under setting [4]; “Tox” under setting [5]; “Tox” under setting [6]; “Tox” under setting [7]; “Tox” under setting [8]; “Tox” under setting [9]. In addition, the CDI entry by setting is: under setting [10], “Tox”; under setting [11], “Tox”; under setting [12], “Tox”; under setting [13], “Tox”; under setting [14], “Tox”; under setting [15], “Tox”.

Turning to `Nc1ccc(S(=O)(=O)Nc2ncccn2)cc1` [sulfadiazine], the “cell toxicity / growth curves with and without silver” value is listed as “enhanced cell toxicity”.

`O=C(O)c1ccccc1S` [thiosalicylic acid]: the “CDI … silver + biocide” value is “Tox” under setting [18], “Tox” under setting [20] and “Tox” under setting [22].

On to `Cl.N[C@@H](CCl)C(=O)O` [β-Chloro-L-alanine HCl, β-chloro-L-alanine hydrochloride], for which the CDI entry under setting [10] was “Tox”; the CDI result under setting [11] is given as “Tox”; the CDI result under setting [12] is recorded as “Tox”; the CDI entry under setting [13] is “Tox”; the CDI result under setting [14] is “Tox”; the CDI result under setting [15] is on record as “Tox”.
